Reference: ChEMBL document CHEMBL5465560, “Selectivity Literature for EUbOPEN Chemogenomic Library” (2024)

How the values were obtained:
[1] = target: BMP-2-inducible protein kinase (Homo sapiens) (UniProt Q9NSY1); assay: Selectivity interaction (KinomeScan (DiscoverX)) EUB0000229b BMP2K; settings: at 10 µM
[2] = target: Tyrosine-protein kinase JAK1 (Homo sapiens, UniProt P23458); assay: Selectivity interaction (KinomeScan (DiscoverX)) EUB0000229b JAK1; settings: at 10 µM
[3] = target: Serine/threonine-protein kinase/endoribonuclease IRE1 (Homo sapiens) (UniProt O75460); assay: Selectivity interaction (KinomeScan (DiscoverX)) EUB0001079a ERN1; settings: at 1 µM
D(1A) dopamine receptor = D(1A) dopamine receptor (Homo sapiens, UniProt P21728); assay: Selectivity interaction (GPCR panel (PDSP screen)) EUB0001079a DRD1; settings: at 10 µM
[4] = target: Calcium/calmodulin-dependent protein kinase type 1D (Homo sapiens) (UniProt Q8IU85); assay: Selectivity interaction (Kinase panel (Invitrogen)) EUB0000639a CAMK1D; settings: at 200 nM
[5] = target: Tyrosine-protein kinase CSK (Homo sapiens) (UniProt P41240); assay: Selectivity interaction (ActivX KiNativ screen (kinase selectivity in THP-1 cell lysates)) EUB0000639a CSK; assay type: subcellular; settings: lysate, at 5 µM
[6] = target: T1, Serine/threonine-protein kinase NLK (Homo sapiens) (UniProt Q9UBE8); assay: Selectivity interaction (KinomeScan (DiscoverX)) EUB0000092b NLK; settings: at 10 µM
T1 sequence (whole entry): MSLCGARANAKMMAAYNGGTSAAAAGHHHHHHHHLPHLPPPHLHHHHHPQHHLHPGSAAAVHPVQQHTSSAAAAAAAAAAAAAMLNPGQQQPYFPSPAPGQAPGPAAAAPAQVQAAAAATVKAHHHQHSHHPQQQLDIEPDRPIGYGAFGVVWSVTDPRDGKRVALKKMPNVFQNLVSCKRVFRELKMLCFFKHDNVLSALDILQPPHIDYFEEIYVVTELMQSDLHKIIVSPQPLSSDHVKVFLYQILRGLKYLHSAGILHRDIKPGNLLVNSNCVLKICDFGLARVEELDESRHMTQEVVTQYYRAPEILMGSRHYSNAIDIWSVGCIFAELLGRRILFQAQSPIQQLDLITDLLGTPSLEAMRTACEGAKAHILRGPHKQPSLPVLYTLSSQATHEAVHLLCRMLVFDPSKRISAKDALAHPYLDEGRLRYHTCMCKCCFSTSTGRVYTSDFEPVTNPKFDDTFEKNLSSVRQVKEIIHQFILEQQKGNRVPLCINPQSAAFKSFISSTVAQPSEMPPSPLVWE

[7] = target: Glycogen synthase kinase-3 alpha (Homo sapiens, UniProt P49840); assay: Selectivity interaction (ActivX KiNativ screen (ex vivo kinase selectivity in human PBMCs)) EUB0001619a GSK3A; assay type: cell-based; settings: PBMC, at 1 µM
[8] = target: T2, Ephrin type-A receptor 1 (Homo sapiens) (UniProt P21709); assay: Selectivity interaction (Kinase panel (Z-LYTE Assay)) EUB0001632a EPHA1; settings: at 10 µM
T2 sequence (whole entry): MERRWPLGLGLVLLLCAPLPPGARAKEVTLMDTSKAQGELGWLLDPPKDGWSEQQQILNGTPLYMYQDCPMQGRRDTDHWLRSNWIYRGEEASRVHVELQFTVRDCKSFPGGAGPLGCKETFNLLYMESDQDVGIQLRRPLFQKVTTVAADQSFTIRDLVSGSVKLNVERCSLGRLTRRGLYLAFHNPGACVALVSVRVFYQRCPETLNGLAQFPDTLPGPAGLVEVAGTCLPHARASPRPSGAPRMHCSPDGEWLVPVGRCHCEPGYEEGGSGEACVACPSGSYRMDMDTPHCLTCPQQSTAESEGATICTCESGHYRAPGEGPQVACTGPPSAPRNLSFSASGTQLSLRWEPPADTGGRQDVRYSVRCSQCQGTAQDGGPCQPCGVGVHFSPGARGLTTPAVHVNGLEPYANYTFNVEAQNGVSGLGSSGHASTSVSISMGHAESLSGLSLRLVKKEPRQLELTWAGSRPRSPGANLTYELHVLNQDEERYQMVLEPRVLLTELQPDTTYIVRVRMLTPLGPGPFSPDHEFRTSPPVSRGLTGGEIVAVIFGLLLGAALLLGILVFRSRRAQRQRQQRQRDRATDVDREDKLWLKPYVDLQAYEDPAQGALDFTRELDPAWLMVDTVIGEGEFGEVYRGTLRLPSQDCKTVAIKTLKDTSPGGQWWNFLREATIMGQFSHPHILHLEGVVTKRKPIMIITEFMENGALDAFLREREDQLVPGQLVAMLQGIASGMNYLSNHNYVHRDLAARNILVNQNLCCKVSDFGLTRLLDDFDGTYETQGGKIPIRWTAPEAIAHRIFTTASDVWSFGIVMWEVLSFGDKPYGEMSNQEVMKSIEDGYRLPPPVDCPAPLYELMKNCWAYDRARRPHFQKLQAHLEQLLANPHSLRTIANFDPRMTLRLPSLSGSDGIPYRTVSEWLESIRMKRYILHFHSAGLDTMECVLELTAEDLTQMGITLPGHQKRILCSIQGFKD

Sequence of Tyrosine-protein kinase CSK (Homo sapiens) (P41240 2-450 limits assumed): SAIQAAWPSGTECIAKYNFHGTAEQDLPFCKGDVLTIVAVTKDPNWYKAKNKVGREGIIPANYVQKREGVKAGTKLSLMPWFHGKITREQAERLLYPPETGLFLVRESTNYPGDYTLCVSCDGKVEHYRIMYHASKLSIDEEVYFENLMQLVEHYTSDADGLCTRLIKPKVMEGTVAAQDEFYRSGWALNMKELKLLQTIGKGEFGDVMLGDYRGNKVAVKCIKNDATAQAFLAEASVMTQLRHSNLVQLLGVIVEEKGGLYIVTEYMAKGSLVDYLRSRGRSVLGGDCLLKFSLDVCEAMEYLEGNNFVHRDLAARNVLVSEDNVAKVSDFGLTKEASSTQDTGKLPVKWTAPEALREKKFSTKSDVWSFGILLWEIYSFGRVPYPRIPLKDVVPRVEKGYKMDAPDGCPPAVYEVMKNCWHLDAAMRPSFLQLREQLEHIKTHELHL
Sequence of BMP-2-inducible protein kinase (Homo sapiens) (Q9NSY1 whole entry, looked up): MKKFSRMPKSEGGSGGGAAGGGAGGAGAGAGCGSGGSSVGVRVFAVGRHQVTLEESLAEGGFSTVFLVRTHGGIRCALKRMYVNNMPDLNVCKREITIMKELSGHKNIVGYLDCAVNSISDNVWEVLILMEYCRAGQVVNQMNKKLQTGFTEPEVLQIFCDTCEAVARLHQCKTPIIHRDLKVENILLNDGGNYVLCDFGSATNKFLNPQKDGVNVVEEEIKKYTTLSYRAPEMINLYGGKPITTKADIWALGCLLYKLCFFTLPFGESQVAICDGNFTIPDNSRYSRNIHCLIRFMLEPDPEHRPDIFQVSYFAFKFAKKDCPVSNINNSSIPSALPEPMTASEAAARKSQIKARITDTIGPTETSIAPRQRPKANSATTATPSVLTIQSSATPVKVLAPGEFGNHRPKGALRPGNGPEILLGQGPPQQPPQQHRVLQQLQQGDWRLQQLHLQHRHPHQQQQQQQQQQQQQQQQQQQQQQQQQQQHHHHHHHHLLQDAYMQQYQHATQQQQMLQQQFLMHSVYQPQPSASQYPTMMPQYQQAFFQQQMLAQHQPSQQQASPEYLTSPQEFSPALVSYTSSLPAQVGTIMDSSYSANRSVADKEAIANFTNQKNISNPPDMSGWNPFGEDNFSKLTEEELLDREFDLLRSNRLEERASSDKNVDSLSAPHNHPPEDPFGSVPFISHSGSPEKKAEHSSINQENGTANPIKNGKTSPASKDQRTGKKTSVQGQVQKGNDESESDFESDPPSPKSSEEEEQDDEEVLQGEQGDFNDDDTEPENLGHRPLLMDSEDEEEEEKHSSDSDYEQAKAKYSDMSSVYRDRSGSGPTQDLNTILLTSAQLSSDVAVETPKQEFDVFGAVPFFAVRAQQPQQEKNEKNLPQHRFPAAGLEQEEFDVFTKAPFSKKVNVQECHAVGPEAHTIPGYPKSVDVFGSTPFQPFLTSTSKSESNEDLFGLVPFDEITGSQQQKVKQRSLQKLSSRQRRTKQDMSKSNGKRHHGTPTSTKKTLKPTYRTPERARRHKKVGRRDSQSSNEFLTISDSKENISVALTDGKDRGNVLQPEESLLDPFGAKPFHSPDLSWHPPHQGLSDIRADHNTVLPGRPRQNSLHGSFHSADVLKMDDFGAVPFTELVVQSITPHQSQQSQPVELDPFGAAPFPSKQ
Sequence of Serine/threonine-protein kinase/endoribonuclease IRE1 (Homo sapiens) (O75460 19-977 limits assumed): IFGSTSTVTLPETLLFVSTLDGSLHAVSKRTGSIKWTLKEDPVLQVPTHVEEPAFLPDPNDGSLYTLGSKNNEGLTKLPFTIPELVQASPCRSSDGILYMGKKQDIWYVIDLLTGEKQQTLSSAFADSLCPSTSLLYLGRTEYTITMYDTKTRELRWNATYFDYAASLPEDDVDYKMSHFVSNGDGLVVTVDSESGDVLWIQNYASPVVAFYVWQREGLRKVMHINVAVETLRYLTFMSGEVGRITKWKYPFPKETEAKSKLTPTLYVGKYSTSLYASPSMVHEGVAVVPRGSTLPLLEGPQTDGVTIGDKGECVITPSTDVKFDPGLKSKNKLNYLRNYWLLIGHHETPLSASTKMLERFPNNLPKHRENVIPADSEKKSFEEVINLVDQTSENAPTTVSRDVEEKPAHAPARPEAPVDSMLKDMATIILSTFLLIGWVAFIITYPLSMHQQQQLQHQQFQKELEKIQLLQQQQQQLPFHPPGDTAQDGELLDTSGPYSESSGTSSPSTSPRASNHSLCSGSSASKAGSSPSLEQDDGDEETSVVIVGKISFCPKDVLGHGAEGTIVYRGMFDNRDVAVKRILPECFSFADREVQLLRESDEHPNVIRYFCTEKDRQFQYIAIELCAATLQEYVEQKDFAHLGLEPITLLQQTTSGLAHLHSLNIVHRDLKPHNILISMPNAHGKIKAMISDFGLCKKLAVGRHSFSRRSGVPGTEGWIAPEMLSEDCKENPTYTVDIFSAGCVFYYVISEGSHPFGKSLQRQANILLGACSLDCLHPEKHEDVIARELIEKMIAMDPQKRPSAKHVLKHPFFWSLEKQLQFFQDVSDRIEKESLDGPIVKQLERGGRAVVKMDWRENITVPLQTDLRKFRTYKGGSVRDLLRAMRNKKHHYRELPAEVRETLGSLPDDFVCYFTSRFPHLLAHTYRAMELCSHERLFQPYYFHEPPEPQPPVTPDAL
Sequence of Calcium/calmodulin-dependent protein kinase type 1D (Homo sapiens) (Q8IU85 whole entry, looked up): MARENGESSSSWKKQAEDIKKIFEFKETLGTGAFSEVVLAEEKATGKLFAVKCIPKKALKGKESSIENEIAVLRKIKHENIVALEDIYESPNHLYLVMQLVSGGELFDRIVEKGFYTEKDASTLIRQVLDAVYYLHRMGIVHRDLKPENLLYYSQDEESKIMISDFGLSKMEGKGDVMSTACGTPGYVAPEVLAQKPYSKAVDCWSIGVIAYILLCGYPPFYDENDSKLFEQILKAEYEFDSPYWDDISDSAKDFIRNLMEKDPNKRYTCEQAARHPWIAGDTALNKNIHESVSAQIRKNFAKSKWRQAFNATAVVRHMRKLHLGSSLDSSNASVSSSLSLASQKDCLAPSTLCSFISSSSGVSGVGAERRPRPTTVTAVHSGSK
Sequence of D(1A) dopamine receptor (P21728 whole entry): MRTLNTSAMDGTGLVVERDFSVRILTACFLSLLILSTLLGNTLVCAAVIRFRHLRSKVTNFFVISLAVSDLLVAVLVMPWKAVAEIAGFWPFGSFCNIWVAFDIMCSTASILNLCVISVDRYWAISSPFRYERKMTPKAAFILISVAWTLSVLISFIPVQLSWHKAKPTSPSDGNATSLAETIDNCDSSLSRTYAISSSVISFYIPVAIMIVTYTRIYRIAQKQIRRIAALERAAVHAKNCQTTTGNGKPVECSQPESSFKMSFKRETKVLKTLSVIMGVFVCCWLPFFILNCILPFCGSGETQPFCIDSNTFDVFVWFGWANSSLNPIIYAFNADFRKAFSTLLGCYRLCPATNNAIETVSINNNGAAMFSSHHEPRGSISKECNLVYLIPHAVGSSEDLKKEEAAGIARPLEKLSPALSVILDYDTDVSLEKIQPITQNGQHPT
Sequence of Tyrosine-protein kinase JAK1 (P23458 whole entry): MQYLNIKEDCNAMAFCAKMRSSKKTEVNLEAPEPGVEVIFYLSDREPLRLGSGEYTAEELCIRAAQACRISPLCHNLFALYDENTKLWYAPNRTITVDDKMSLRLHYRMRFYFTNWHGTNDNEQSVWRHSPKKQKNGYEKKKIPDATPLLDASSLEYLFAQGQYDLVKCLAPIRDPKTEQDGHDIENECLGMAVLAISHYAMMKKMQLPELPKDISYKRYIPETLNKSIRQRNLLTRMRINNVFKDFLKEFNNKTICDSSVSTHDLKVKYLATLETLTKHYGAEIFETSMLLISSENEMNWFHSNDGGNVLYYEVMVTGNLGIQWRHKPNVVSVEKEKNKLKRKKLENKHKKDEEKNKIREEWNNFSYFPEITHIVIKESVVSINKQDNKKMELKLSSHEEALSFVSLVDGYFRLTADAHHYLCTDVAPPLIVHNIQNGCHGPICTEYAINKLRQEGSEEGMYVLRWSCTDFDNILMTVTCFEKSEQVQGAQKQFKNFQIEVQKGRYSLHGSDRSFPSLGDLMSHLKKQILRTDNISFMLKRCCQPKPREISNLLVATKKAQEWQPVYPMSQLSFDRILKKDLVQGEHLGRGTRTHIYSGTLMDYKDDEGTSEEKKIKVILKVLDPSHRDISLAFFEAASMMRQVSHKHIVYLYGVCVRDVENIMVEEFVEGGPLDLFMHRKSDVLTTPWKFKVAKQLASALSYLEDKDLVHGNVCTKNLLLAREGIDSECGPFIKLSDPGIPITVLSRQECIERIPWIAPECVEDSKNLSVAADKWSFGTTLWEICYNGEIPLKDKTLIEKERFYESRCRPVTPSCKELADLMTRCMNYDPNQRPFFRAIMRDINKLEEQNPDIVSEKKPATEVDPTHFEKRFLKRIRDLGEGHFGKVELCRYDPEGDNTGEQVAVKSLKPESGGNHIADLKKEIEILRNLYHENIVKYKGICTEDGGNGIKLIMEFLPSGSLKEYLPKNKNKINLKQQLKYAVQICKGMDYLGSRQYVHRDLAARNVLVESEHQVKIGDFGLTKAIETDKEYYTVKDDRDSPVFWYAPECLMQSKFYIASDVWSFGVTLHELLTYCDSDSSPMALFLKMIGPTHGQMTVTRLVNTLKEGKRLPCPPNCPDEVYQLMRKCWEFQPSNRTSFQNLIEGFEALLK
Sequence of Glycogen synthase kinase-3 alpha (P49840 2-483 limits assumed): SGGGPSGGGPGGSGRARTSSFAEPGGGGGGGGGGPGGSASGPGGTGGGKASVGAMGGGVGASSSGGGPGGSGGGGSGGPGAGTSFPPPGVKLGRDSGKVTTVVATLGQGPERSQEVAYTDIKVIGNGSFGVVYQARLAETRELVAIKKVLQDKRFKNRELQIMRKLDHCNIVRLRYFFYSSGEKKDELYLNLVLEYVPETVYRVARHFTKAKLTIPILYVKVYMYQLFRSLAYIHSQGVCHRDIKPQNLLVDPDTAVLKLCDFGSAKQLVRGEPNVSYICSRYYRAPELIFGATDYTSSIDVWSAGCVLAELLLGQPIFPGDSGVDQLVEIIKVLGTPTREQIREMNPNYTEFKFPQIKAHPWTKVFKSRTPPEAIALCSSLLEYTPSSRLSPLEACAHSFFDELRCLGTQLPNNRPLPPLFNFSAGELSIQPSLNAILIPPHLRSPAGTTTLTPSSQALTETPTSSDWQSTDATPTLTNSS

**Q.** Which % binding [1] does the source give for `COc1cc(N(C)c2ccnc3ccc(C(F)(F)F)cc23)cc(OC)c1OC` here?
**A.** 99%

**Q.** What about the % binding [2] of the same compound?
**A.** 70%

**Q.** Which % of control [3] does the source give for `Nc1cnc(N2CCc3cc(S(=O)(=O)Nc4c(F)cc(Cl)cc4F)cc(N4CCCC4=O)c32)nc1` [TP-020n] here?
**A.** 100%

**Q.** And the % of inhibition (D(1A) dopamine receptor)?
**A.** -8.35%

**Q.** With `CC[C@@H]1[C@H](F)C(=O)N[C@@H]1COc1nccc2cc(C(N)=O)c(OC)cc12` [ZIMLOVISERTIB] as the compound, how does the % of inhibition [4] read?
**A.** 2.36%

**Q.** And the % of inhibition [5]?
**A.** -2.6%

**Q.** With `CCC(=O)N1CCN(c2ccc(-n3c(=O)ccc4cnc5ccc(-c6cnc7ccccc7c6)cc5c43)cc2C(F)(F)F)CC1` as the compound, how does the % of control [6] read?
**A.** 25%

**Q.** For `N#Cc1cccc(-c2c[nH]c3ncnc(N4CCOCC4)c23)c1`, which % of inhibition [7] is on record?
**A.** 7%

**Q.** `Cn1cc(-n2cnc3c(NCc4nc5cc(Cl)c(Cl)cc5[nH]4)nc(N4CCOCC4)nc32)cn1` was tested. Which % of control [8] did it give?
**A.** 2.3%
